According to ChEMBL document CHEMBL1135182, “Synthesis and anti-influenza evaluation of polyvalent sialidase inhibitors bearing 4-guanidino-Neu5Ac2en derivatives” (Bioorg Med Chem Lett, 2002):
In brackets after ≈: the same amount, converted by molar mass. Non-standard residues stand in square brackets, D forms with d. Residues, ends and D or L forms follow the SMILES beside them. ξ: configuration not given here. *: point of attachment. X3 = CC(=O)N[C@H]1[C@H]([C@H](OCCCCCN*)[C@H](O)CO)OC(C(=O)O)=C[C@@H]1NC(=N)N; X4 = CC(=O)N[C@H]1[C@H]([C@H](OCCCCCN*)[C@H](O)CO)OC(C(=O)O)=C[C@@H]1N=C(N)N; X1 = CC(=O)N[C@H]1[C@H]([C@H](OCCN*)[C@H](O)CO)OC(C(=O)O)=C[C@@H]1NC(=N)N; X2 = CC(=O)N[C@H]1[C@H]([C@H](OCCN*)[C@H](O)CO)OC(C(=O)O)=C[C@@H]1N=C(N)N; ξE = NC(CCC(=O)O)C(=O)O; NHBn = c1ccc(CN*)cc1; NHPentyl = CCCCCN*

Experiments:
Influenza A virus [1] = assay: Inhibitory concentration by Plaque reduction assay; format: functional, organism-based
Influenza A virus [2] = assay: Inhibitory concentration by Sialidase inhibitory assay; format: functional, organism-based
Mus musculus [3] = species: Mus musculus; assay: Number of survivors out of 8 tested mice at 10 days after infection with influenza A/PR/8/34 (H1N1) virus; format: functional
Mus musculus [4] = species: Mus musculus; assay: Number of survivors out of 8 tested mice at 20 days after infection, with influenza A/PR/8/34 (H1N1) virus; format: functional
Mus musculus [5] = species: Mus musculus; assay: Number of survivors out of 7 tested mice at 10 days after infection with influenza A/PR/8/34 (H1N1) virus; format: functional
Mus musculus [6] = species: Mus musculus; assay: Number of survivors out of 7 tested mice at 20 days after infection with influenza A/PR/8/34 (H1N1) virus; format: functional

SMILES | IC50 (Influenza A virus [1]) [ng/mL] | IC50 (Influenza A virus [2]) [ng/mL] | Survival rate (Mus musculus [3]) | Survival rate (Mus musculus [4]) | Survival rate (Mus musculus [5]) | Survival rate (Mus musculus [6])
CC(=O)N[C@H]1[C@H]([C@H](OCCCCCCCCCCNC(=O)CCC(N)C(=O)N[C@@H](CCC(N)=O)C(=O)N[C@@H](CCC(N)=O)C(=O)N[C@@H](CCC(N)=O)C(=O)CN[C@@H](CCC(N)=O)C(=O)N[C@@H](CCC(N)=O)C(=O)N[C@@H](CCC(N)=O)C(=O)N[C@@H](CCC(N)=O)C(=O)N[C@@H](CCC(N)=O)C(=O)N[C@@H](CCC(N)=O)C(=O)N[C@@H](CCC(N)=O)C(N)=O)[C@H](O)CO)OC(C(=O)O)=C[C@@H]1NC(=N)N (some centres undefined) | 2.1 (≈ 1.1 nM) | 62 (≈ 32.4 nM) | – | – | – | –
CC(=O)N[C@H]1[C@H]([C@H](OCCNC(=O)CCC(N)C(=O)N[C@@H](CCC(N)=O)C(=O)N[C@@H](CCC(N)=O)C(=O)N[C@@H](CCC(N)=O)C(=O)CN[C@@H](CCC(N)=O)C(=O)N[C@@H](CCC(N)=O)C(=O)N[C@@H](CCC(N)=O)C(=O)N[C@@H](CCC(N)=O)C(=O)N[C@@H](CCC(N)=O)C(=O)N[C@@H](CCC(N)=O)C(=O)N[C@@H](CCC(N)=O)C(N)=O)[C@H](O)CO)OC(C(=O)O)=C[C@@H]1NC(=N)N (some centres undefined) | 0.066 (≈ 0.0367 nM) | 114 (≈ 63.4 nM) | – | – | – | –
CC(=O)NCCCCCO[C@@H]([C@@H]1OC(C(=O)O)=C[C@H](N=C(N)N)[C@H]1NC(C)=O)[C@H](O)CO | 5.9 (≈ 12.8 nM) | 90 (≈ 196 nM) | – | – | – | –
CC(=O)NCCO[C@@H]([C@@H]1OC(C(=O)O)=C[C@H](N=C(N)N)[C@H]1NC(C)=O)[C@H](O)CO | 5.5 (≈ 13.2 nM) | 22 (≈ 52.7 nM) | – | – | – | –
CC(=O)N[C@H]1[C@H]([C@H](OCCCCCNC(=O)CC[C@H](NC(=O)[C@H](CCC(=O)NCc2ccccc2)NC(=O)[C@@H](N)CCC(=O)NCc2ccccc2)C(=O)N[C@@H](CCC(N)=O)C(=O)N[C@@H](CCC(N)=O)C(=O)N[C@@H](CCC(N)=O)C(=O)N[C@@H](CCC(N)=O)C(=O)N[C@@H](CCC(N)=O)C(=O)N[C@@H](CCC(N)=O)C(=O)N[C@@H](CCC(N)=O)C(=O)N[C@@H](CCC(N)=O)C(N)=O)[C@H](O)CO)OC(C(=O)O)=C[C@@H]1NC(=N)N (H-E(NHBn)E(NHBn)E(X3)QQQQQQQQ-NH2) | 0.028 (≈ 0.014 nM) | 63 (≈ 31.4 nM) | – | – | – | –
CCCCCNC(=O)CC[C@H](NC(=O)[C@H](CCC(=O)NCCCCC)NC(=O)[C@H](CCC(=O)NCCCCC)NC(=O)[C@@H](N)CCC(=O)NCCCCC)C(=O)N[C@@H](CCC(=O)NCCO[C@@H]([C@@H]1OC(C(=O)O)=C[C@H](N=C(N)N)[C@H]1NC(C)=O)[C@H](O)CO)C(=O)N[C@@H](CCC(N)=O)C(=O)N[C@@H](CCC(N)=O)C(=O)N[C@@H](CCC(N)=O)C(=O)N[C@@H](CCC(N)=O)C(=O)N[C@@H](CCC(N)=O)C(=O)N[C@@H](CCC(N)=O)C(=O)N[C@@H](CCC(N)=O)C(N)=O (H-E(NHPentyl)E(NHPentyl)E(NHPentyl)E(NHPentyl)E(X2)QQQQQQQ-NH2) | 0.1 (≈ 0.0456 nM) | 585 (≈ 267 nM) | – | – | – | –
CC(=O)N[C@H]1[C@H]([C@H](O)[C@H](O)CO)OC(C(=O)O)=C[C@@H]1NC(=N)N [ZANAMIVIR] | – | – | 1 | 0 | – | –
CCCCCNC(=O)CC[C@H](NC(=O)[C@@H](N)CCC(=O)NCCCCC)C(=O)N[C@@H](CCC(=O)NCCCCCO[C@@H]([C@@H]1OC(C(=O)O)=C[C@H](N=C(N)N)[C@H]1NC(C)=O)[C@H](O)CO)C(=O)N[C@@H](CCC(N)=O)C(=O)N[C@@H](CCC(N)=O)C(=O)N[C@@H](CCC(N)=O)C(=O)N[C@@H](CCC(N)=O)C(=O)N[C@@H](CCC(N)=O)C(=O)N[C@@H](CCC(N)=O)C(=O)N[C@@H](CCC(N)=O)C(=O)N[C@@H](CCC(N)=O)C(N)=O (H-E(NHPentyl)E(NHPentyl)E(X4)QQQQQQQQ-NH2) | 0.32 (≈ 0.163 nM) | 113 (≈ 57.4 nM) | – | – | – | –
CC(=O)N[C@H]1[C@H]([C@H](OCCCCCNC(=O)CCC(N)C(=O)N[C@@H](CCC(N)=O)C(=O)N[C@@H](CCC(N)=O)C(=O)N[C@@H](CCC(N)=O)C(=O)CN[C@@H](CCC(N)=O)C(=O)N[C@@H](CCC(N)=O)C(=O)N[C@@H](CCC(N)=O)C(=O)N[C@@H](CCC(N)=O)C(=O)N[C@@H](CCC(N)=O)C(=O)N[C@@H](CCC(N)=O)C(=O)N[C@@H](CCC(N)=O)C(N)=O)[C@H](O)CO)OC(C(=O)O)=C[C@@H]1NC(=N)N (some centres undefined) | 0.072 (≈ 0.0391 nM) | 161 (≈ 87.5 nM) | – | – | 7 | 7
CC(=O)N[C@H]1[C@H]([C@H](OCCNC(=O)CCC(N)C(=O)N[C@@H](CCC(N)=O)C(=O)N[C@@H](CCC(N)=O)C(=O)N[C@@H](CCC(N)=O)C(N)=O)[C@H](O)CO)OC(C(=O)O)=C[C@@H]1NC(=N)N (some centres undefined) (H-[ξE](X1)QQQ-NH2) | 0.17 (≈ 0.191 nM) | 364 (≈ 410 nM) | – | – | – | –
CC(=O)N[C@H]1[C@H]([C@H](OCCNC(=O)CC[C@H](NC(=O)[C@H](CCC(=O)NCc2ccccc2)NC(=O)[C@H](CCC(=O)NCc2ccccc2)NC(=O)[C@H](CCC(=O)NCc2ccccc2)NC(=O)[C@@H](N)CCC(=O)NCc2ccccc2)C(=O)N[C@@H](CCC(N)=O)C(=O)N[C@@H](CCC(N)=O)C(=O)N[C@@H](CCC(N)=O)C(=O)N[C@@H](CCC(N)=O)C(=O)N[C@@H](CCC(N)=O)C(=O)N[C@@H](CCC(N)=O)C(=O)N[C@@H](CCC(N)=O)C(N)=O)[C@H](O)CO)OC(C(=O)O)=C[C@@H]1NC(=N)N (H-E(NHBn)E(NHBn)E(NHBn)E(NHBn)E(X1)QQQQQQQ-NH2) | 0.15 (≈ 0.066 nM) | 324 (≈ 143 nM) | – | – | – | –
